Assay results taken from patent US20080199503A1, “Pharmaceutical Compositions Preparation of Peptides, Secreted by the Snake Venom Glands, Particularly of Bothrops Jararaca, Vasopeptidases Inhibitors, Evasins, Their Analogues, Derivatives and Products Associated, Thereof, for Development of Applications and Use in Chronic-Degenerative Diseases” (priority 2002, published 2008).
Square brackets hold non-standard residues; d marks the D form. Ends that are not written are not given here. Peptide text beside a SMILES is read from it. pGlu = O=C1CC[C@@H](C(=O)O)N1

Columns and labels:
[1] = molecular target: N-terminal catalytic site of the Angiotensin I converting enzyme (recombinant ACE) (Homo sapiens, UniProt P12821); assay: Inhibition of the N-terminal catalytic site of recombinant ACE (fluorogenic substrate); format: biochemical
Method: (§1) The fractions from purification were submitted to mass spectrometry analysis to conforming the Evasins molar mass after purification. • The enzyme assays for the recombinant ACE inhibition were conducted using the substrate Mca-Ala-Ser-Asp-Lys-DpaOH, at 25° C., in a 50 mM Hepes buffer (pH 6.8), 200 mM NaCl and […] ZnCl2.

[2] = molecular target: C-terminal catalytic site of the Angiotensin I converting enzyme (recombinant ACE) (Homo sapiens, UniProt P12821); assay: Inhibition of the C-terminal catalytic site of recombinant ACE (fluorogenic substrate); format: biochemical
Method: as §1

[3] = molecular target: neutral endopeptidase (recombinant NEP) (Homo sapiens, UniProt P08473); assay: Fluorometric assay of recombinant NEP inhibition; format: biochemical
Method: The fluorometric assays for the recombinant NEP inhibition were conducted using the substrate Abz-RL-EDDnp in a 50 mM Tris-HCl buffer, pH 7.5, at 37° C. […] The Evasins were pre-incubated with the enzyme before the substrate addition.
The inhibition constants (Ki) values were determined by means of the ratio of the apparent inhibition constant (Ki(app)) and the substrate Km (Salvesen and Nagase, 1990). In: Proteolytic enzymes a practical aproach, Beynon and Bond Eds Oxford University Press, England, 87-88).

[4] = test system: anesthetized normotensive rats (WKY) blood pressure; assay: Potentiation of the bradykinin hypotensive effect on anesthetized rat blood pressure; format: in vivo; details: for Bk potentiation(%): hypotension increase of a single bradykinin dose after 200 nmol of potentiator i.v., anesthetized rats; for Duration time: time to reduce the potentiating effect by 50%, 200 nmol/rat i.v., unit not given, minutes
Method: The potentiating activity of the bradykinin hypotensive effect was tested in anesthetized rats. Normotensive male rats (WKY) were anesthetized using pentobarbital sodium (Hypnol® Cristália, 50 mg/kg, intraperitoneal) and placed on a controlled-temperature board for maintaining the body temperature between 36.5° C. and 37° C. A polygraph coupled to a physiological transducer was used. The blood pressure ranging values were obtained by integrating the areas limited by the baseline pressure and comparing them to the values obtained from control assays. In in vivo assays, the potentiating activity of Evasins on the hypotensive effect of bradykinin on anesthetized rat blood pressure was observed. Two parameters were determined for comparison of the potentiating effects of bradykinin on the anesthetized rat blood pressure (n=5):
1) Intensity of the potentiating effect of the hypotensive activity of bradykinin on the anesthetized rats blood pressure: This value was defined as the hypotension percentage (%) increase caused by a single dose of bradykinin obtained after the infusion of 200 nmol of potentiator. 2) Potentiating effect length: Time required to reduce the potentiating effect on a single dose of bradykinin by 50%.

[5] = molecular target: recombinant neutral endopeptidase; assay: fluorogenic substrate (Abz-RL-EDDnp) inhibition assay, recombinant NEP
[6] = molecular target: T1, recombinant Angiotensin I converting enzyme, N-terminal catalytic site
T1 chain: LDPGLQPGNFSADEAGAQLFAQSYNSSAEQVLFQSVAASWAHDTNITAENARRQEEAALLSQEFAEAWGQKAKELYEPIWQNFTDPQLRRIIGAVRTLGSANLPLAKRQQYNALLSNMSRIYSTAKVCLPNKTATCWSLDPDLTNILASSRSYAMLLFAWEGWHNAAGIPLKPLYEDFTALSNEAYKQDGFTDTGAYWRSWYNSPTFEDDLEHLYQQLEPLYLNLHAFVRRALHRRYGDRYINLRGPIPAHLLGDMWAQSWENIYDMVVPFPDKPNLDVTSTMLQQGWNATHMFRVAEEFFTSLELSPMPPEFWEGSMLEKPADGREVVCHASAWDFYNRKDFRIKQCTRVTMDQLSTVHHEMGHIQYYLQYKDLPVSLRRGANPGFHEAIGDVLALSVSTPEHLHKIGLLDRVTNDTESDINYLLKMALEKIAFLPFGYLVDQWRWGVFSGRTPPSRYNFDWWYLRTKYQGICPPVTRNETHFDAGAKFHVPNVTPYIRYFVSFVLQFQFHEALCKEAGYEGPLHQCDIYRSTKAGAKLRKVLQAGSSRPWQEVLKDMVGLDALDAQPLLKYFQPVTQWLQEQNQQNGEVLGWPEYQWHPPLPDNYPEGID

[7] = molecular target: T2, recombinant Angiotensin I converting enzyme, C-terminal catalytic site
T2 chain: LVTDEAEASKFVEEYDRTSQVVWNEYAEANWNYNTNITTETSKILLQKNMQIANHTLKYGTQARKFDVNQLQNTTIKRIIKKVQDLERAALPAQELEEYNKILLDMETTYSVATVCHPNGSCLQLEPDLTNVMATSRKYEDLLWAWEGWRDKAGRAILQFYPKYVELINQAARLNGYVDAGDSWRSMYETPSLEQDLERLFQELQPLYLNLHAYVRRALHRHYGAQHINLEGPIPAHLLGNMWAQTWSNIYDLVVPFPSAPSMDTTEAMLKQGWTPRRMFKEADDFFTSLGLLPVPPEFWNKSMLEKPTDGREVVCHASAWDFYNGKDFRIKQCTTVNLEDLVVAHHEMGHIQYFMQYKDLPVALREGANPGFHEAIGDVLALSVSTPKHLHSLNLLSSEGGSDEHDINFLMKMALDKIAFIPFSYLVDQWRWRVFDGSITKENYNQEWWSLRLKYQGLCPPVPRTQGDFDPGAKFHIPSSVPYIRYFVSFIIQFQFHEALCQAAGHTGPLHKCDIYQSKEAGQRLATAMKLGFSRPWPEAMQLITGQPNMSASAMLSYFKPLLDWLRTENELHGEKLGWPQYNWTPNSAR

Sequence of neutral endopeptidase (recombinant NEP) (P08473 whole entry, species assumed): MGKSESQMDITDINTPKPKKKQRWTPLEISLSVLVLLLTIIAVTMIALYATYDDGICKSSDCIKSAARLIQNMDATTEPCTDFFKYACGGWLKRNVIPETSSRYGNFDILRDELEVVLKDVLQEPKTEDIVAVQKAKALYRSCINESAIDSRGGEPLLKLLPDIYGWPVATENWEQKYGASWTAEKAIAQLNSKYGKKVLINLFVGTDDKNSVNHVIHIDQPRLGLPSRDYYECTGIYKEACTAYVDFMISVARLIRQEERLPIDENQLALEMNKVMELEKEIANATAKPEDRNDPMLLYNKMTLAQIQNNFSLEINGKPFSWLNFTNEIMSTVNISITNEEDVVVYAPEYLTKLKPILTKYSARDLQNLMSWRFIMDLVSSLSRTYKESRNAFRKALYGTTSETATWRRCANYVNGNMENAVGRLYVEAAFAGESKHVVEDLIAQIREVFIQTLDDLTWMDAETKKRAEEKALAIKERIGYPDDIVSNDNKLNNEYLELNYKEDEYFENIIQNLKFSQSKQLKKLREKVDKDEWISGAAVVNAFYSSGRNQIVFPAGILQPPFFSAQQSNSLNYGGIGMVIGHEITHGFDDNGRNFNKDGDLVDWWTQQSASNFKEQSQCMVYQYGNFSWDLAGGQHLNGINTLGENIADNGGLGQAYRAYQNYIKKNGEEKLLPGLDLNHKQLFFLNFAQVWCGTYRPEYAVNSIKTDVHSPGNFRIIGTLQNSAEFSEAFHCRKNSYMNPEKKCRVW

| Molecule | Ki [1] [nM] | Ki [2] [nM] | Ki [3] [µM] | Bk potentiation(%) [4] [%] | Duration time [4] | Ki [5] [µM] | Ki [6] [nM] | Ki [7] [nM] |
| --- | --- | --- | --- | --- | --- | --- | --- | --- |
| CC[C@H](C)[C@H](NC(=O)[C@H](CC(N)=O)NC(=O)[C@@H]1CCCN1C(=O)CNC(=O)[C@@H]1CCCN1C(=O)[C@H](Cc1c[nH]c2ccccc12)NC(=O)[C@H](CO)NC(=O)[C@@H]1CCC(=O)N1)C(=O)N1CCC[C@H]1C(=O)N1CCC[C@H]1C(=O)O [EVASIN-10a, <ESWPGPNIPP] ([pGlu]SWPGPNIPP-OH; C-terminus assumed) | 130 | 33 |  |  |  |  |  |  |
| CC[C@H](C)[C@H](NC(=O)[C@@H]1CCCN1C(=O)[C@@H]1CCCN1C(=O)CNC(=O)[C@@H]1CCCN1C(=O)[C@H](C)NC(=O)[C@H](CCCNC(=N)N)NC(=O)CNC(=O)[C@@H]1CCC(=O)N1)C(=O)N1CCC[C@H]1C(=O)N1CCC[C@H]1C(=O)O [EVASIN-11b, <EGRAPGPPIPP] ([pGlu]GRAPGPPIPP-OH; C-terminus assumed) | 3000 | 57 | 476 | 164.3 | 90 |  |  |  |
| CC[C@H](C)[C@H](NC(=O)[C@@H]1CCCN1C(=O)[C@@H]1CCCN1C(=O)[C@H](Cc1c[nH]cn1)NC(=O)[C@@H]1CCCN1C(=O)[C@H](C)NC(=O)[C@H](CCCNC(=N)N)NC(=O)CNC(=O)[C@@H]1CCC(=O)N1)C(=O)N1CCC[C@H]1C(=O)N1CCC[C@H]1C(=O)O [EVASIN-11c, <EGRAPHPPIPP] ([pGlu]GRAPHPPIPP-OH; C-terminus assumed) | 2000 | 40 | 589 | 67 | 28 |  |  |  |
| CC[C@H](C)[C@H](NC(=O)[C@@H]1CCCN1C(=O)[C@@H]1CCCN1C(=O)[C@H](Cc1c[nH]cn1)NC(=O)[C@@H]1CCCN1C(=O)[C@@H]1CCCN1C(=O)[C@H](CCCNC(=N)N)NC(=O)[C@H](C)NC(=O)[C@@H]1CCC(=O)N1)C(=O)N1CCC[C@H]1C(=O)N1CCC[C@H]1C(=O)O [EVASIN-11e, EARPPHPPIPP] ([pGlu]ARPPHPPIPP-OH; C-terminus assumed) |  |  |  | 41 | 35 |  |  |  |
| CC[C@H](C)[C@H](NC(=O)[C@H](CCC(N)=O)NC(=O)[C@@H]1CCCN1C(=O)[C@H](CCCNC(=N)N)NC(=O)[C@@H]1CCCN1C(=O)[C@H](Cc1c[nH]c2ccccc12)NC(=O)[C@H](C)NC(=O)[C@H](Cc1c[nH]c2ccccc12)NC(=O)CNC(=O)[C@@H]1CCC(=O)N1)C(=O)N1CCC[C@H]1C(=O)N1CCC[C@H]1C(=O)O [EVASIN-12a, <EGWAWPRPQIPP] ([pGlu]GWAWPRPQIPP-OH; C-terminus assumed) | 25 | 25 | 106 |  |  |  |  |  |
| CC[C@H](C)[C@H](NC(=O)[C@@H]1CCCN1C(=O)[C@@H]1CCCN1C(=O)CNC(=O)[C@@H]1CCCN1C(=O)[C@@H]1CCCN1C(=O)[C@H](CCCNC(=N)N)NC(=O)CNC(=O)[C@H](Cc1c[nH]c2ccccc12)NC(=O)[C@@H]1CCC(=O)N1)C(=O)N1CCC[C@H]1C(=O)N1CCC[C@H]1C(=O)O [EVASIN-12b, <EWGRPPGPPIPP] ([pGlu]WGRPPGPPIPP-OH; C-terminus assumed) | 5 | 150 | 150 | 340 | 40 |  |  |  |
| CC[C@H](C)[C@H](NC(=O)[C@H](CCC(=O)O)NC(=O)[C@@H]1CCCN1C(=O)CNC(=O)[C@@H]1CCCN1C(=O)[C@H](CCCNC(=N)N)NC(=O)[C@@H]1CCCN1C(=O)[C@H](Cc1c[nH]c2ccccc12)NC(=O)CNC(=O)CNC(=O)[C@@H]1CCC(=O)N1)C(=O)N1CCC[C@H]1C(=O)N1CCC[C@H]1C(=O)O [EVASIN-13a, <EGGWPRPGPEIPP] ([pGlu]GGWPRPGPEIPP-OH; C-terminus assumed) | 50 | 50 | 473 | 45 | 30 |  |  |  |
| EVASIN-10c (peptide) |  |  |  |  |  | 253 |  |  |
| [pGlu]SWPGPNIPP [EVASIN-10a] |  |  |  |  |  |  | 130 | 33 |
| [pGlu]DGPIPP [EVASIN-7a] |  |  |  |  |  | 492 | 70000 | 40000 |
| [pGlu]GRAPGPPIPP [EVASIN-11b] |  |  |  |  |  | 476 | 3000 | 57 |
| [pGlu]GRAPHPPIPP [EVASIN-11c] |  |  |  |  |  | 589 | 2000 | 40 |
| [pGlu]KWAP [EVASIN-5a] |  |  |  |  |  | 550 | 399 | 1280 |
| [pGlu]GGWPRPGPEIPP [EVASIN-13a] |  |  |  |  |  | 473 | 50 | 50 |
| [pGlu]GWAWPRPQIPP [EVASIN-12a] |  |  |  |  |  | 106 | 25 | 25 |
| [pGlu]WGRPPGPPIPP [EVASIN-12b] |  |  |  |  |  | 150 | 5 | 150 |
| EWPRPQIPP (pyroglutamic acid (<E) at position 1 (N-terminus)) [EVASIN-9a] |  |  |  |  |  | 86 | 100 | 1 |
